Measurements: paper PMC2095803 (Nucleic Acids Research, 2007)

Assays:
Taq DNA polymerase = Taq DNA polymerase (Thermus aquaticus, UniProt P19821); test: PEP; assay type: biochemical, Thermus aquaticus YT-1
[1] = target: Klenow(exo−) DNA polymerase (Escherichia coli, UniProt P00582, D355A/E357A); test: PEP; assay type: biochemical
[2] = target: T1, DeepVent(exo−) DNA polymerase (Pyrococcus sp. GB-D, UniProt Q51334, D141A/E143A); test: PEP; assay type: biochemical, Pyrococcus species GB-D
T1 sequence (Q51334 with tags, fused parts or gaps D141A/E143A): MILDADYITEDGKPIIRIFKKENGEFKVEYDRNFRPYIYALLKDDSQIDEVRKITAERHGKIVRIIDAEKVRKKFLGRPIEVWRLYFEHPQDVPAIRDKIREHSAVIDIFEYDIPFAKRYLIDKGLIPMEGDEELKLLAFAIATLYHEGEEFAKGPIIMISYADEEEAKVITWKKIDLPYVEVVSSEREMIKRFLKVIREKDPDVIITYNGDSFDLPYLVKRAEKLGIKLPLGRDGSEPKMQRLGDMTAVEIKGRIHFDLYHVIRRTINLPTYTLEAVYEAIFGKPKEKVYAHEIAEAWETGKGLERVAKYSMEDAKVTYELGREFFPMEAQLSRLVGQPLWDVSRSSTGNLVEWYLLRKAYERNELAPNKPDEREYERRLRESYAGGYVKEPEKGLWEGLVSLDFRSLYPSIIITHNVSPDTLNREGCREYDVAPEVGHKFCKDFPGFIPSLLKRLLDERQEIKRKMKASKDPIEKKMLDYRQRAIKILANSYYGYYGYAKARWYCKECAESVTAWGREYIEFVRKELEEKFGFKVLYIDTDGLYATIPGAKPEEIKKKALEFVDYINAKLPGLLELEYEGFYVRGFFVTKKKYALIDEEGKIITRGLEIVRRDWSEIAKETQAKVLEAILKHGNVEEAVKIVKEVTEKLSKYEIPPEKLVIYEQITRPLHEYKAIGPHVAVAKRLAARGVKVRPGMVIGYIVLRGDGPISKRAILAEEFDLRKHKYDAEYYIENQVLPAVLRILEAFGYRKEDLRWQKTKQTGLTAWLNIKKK

Bst DNA polymerase = target: T2, Bst DNA polymerase (Geobacillus stearothermophilus, UniProt P52026); test: PEP mismatch; assay type: biochemical, Bacillus stearothermophilus
T2 sequence (P52026 289-876 limits assumed): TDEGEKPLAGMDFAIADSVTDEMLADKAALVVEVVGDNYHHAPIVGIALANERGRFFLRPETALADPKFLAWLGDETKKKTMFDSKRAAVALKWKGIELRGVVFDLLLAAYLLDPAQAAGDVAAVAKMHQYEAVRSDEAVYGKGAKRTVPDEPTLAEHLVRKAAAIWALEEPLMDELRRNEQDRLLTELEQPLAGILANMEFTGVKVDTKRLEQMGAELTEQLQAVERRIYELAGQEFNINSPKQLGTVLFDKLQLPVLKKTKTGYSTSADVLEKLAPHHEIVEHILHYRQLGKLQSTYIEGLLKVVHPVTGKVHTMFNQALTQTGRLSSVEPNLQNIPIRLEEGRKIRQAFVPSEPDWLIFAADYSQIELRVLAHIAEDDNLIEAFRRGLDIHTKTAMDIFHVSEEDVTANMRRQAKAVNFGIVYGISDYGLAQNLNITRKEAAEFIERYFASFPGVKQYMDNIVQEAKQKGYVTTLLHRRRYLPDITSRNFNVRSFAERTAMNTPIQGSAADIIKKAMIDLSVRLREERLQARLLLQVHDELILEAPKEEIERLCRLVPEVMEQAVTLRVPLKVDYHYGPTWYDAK

[3] = target: T3, Vent(exo−) DNA polymerase (Thermococcus litoralis, UniProt P30317, D141A/E143A); test: PEP; assay type: biochemical
T3 sequence (P30317 with tags, fused parts or gaps D141A/E143A): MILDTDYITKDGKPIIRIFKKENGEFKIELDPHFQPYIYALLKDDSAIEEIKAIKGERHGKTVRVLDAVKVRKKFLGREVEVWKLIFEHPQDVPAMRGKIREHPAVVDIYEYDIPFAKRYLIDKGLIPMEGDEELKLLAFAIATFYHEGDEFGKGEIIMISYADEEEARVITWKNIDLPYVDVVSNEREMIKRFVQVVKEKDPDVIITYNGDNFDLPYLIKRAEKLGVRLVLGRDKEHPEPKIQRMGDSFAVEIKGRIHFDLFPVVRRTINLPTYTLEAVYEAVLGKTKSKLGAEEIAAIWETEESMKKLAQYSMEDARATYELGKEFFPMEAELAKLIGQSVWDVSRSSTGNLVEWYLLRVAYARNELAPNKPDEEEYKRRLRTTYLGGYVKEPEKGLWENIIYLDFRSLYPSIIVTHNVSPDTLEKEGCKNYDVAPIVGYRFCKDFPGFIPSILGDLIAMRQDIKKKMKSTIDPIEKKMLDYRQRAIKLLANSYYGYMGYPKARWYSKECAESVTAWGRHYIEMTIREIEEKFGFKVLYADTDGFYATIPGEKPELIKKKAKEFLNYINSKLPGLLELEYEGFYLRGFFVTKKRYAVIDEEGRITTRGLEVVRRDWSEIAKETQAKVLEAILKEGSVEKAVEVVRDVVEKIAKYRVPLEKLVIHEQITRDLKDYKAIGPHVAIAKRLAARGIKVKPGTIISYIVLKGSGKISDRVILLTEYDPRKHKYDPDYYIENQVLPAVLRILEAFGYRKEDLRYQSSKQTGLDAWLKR

[4] = Klenow(exo−), ratio of IC50 values

Sequence of Taq DNA polymerase (P19821 whole entry): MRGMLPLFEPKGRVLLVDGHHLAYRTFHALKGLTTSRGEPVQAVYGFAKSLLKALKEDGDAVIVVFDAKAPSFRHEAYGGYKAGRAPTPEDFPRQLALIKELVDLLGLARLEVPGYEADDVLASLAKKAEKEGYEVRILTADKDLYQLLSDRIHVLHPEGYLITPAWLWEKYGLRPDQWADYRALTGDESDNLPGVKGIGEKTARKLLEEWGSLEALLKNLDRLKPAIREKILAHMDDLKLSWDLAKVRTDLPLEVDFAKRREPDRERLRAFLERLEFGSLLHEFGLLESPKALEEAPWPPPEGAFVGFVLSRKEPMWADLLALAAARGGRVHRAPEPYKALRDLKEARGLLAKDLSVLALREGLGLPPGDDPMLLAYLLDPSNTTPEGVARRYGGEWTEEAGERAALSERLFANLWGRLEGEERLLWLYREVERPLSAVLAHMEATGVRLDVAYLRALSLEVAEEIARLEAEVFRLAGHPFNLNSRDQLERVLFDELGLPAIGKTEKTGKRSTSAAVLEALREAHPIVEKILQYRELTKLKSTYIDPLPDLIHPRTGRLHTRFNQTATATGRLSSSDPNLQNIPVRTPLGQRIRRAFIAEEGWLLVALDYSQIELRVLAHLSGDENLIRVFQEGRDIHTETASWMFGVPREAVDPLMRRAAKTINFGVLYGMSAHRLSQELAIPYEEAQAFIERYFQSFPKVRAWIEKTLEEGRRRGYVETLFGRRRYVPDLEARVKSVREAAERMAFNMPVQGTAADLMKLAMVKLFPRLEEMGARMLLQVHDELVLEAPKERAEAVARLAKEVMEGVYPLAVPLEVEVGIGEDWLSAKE

Row | SMILES | Incorporation bias Cpd IIIc/dATP (Taq DNA polymerase; Taq, ratio of IC50 values) | Incorporation bias Cpd IIIc/ddATP (Taq DNA polymerase; Taq, ratio of IC50 values) | Incorporation bias Cpd IIIc/dATP [1, 4] | Incorporation bias Cpd IIIc/ddATP [1, 4] | IC50 [2] [nM] | Discrimination ratio, cytosine–adenine mismatch over complement thymidine base (Bst DNA polymerase; Bst, C template base (oligoTemplate)) [fold] | Nucleotide discrimination, IC50 of mismatched versus matched bases (Bst DNA polymerase; Bst, mismatched template bases A, C or G) | IC50 [3] [nM] | IC50 (Taq DNA polymerase) [nM] | Incorporation bias ddATP/dATP (Taq DNA polymerase; Taq, ratio of IC50 values) | IC50 [1] [nM] | Incorporation bias ddATP/dATP [1, 4] | Mismatch incorporation (Bst DNA polymerase; final concentration of 500 μM (data not shown))
1 | O=[N+]([O-])c1ccccc1CNc1ncnc2c1ncn2[C@H]1C[C@H](O)[C@@H](COP(=O)(O)OP(=O)(O)OP(=O)(O)O)O1 [Compound IIIc, N^6-(2-Nitrobenzyl)-2’-deoxyadenosine-5’-triphosphate] | 380 | 0.17 | 2.7 | 0.15 | 11 ± 0.6 | 1100 | greater than two orders of magnitude | 2.1 ± 0.2 |  |  |  |  | 
2 | Nc1ncnc2c1ncn2[C@H]1CC[C@@H](COP(=O)(O)OP(=O)(O)OP(=O)(O)O)O1 [ddATP, 2′,3′-dideoxyadenosine triphosphate, reference compound] |  |  |  |  | 3400 ± 400 |  |  | 550 ± 40 | 12600 ± 900 | 2300 | 29 ± 5 | 18 | did not show mismatch incorporation
